Test [1] deals with T1, Opioid receptors; mu and delta (Mus musculus, UniProt P42866+P32300). Nature of the test: Displacement of [3H]-DPDPE from mouse MOR/DOR expressed in HEK293 cells. Format: cell-based. (In general: Loss of bound radioactivity is the signal in a displacement assay; it reports binding, not function.)
For another test, the species on record is Mus musculus. Nature of the test: Selectivity ratio of Ki for mouse DOR to Ki for mouse MOR/DOR.
The target in another test is Mu-type opioid receptor (Mus musculus, UniProt P42866). Nature of the test: Displacement of [3H]-DAMGO from mouse MOR expressed in HEK293 cells. In kind it is cell-based.
Test [2] deals with T1, Opioid receptors; mu and delta. Nature of the test: Displacement of [3H]-DAMGO from mouse MOR/DOR expressed in HEK293 cells. In kind it is cell-based.
Test [3] concerns the target Delta-type opioid receptor (Mus musculus, UniProt P32300). Description: Displacement of [3H]-DPDPE from mouse DOR expressed in HEK293 cells. Format: cell-based.

As usually defined, the pKi is −log10 of the Ki, conventionally taken in molar units. A word on the Ki: it is a dissociation constant, usually derived from enzyme kinetics or from competition with a known ligand. Read a high Ki as weaker binding.

Chain of Delta-type opioid receptor (P32300 whole entry): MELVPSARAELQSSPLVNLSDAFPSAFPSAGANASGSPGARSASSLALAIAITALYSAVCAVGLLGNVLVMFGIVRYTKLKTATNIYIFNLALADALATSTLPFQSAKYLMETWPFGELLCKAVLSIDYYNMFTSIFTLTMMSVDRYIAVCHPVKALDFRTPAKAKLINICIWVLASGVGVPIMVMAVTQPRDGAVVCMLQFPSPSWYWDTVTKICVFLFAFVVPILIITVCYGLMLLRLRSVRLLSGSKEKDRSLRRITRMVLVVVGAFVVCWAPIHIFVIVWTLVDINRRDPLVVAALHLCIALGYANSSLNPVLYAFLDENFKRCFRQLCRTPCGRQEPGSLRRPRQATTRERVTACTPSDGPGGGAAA
Chain of Mu-type opioid receptor (P42866 whole entry): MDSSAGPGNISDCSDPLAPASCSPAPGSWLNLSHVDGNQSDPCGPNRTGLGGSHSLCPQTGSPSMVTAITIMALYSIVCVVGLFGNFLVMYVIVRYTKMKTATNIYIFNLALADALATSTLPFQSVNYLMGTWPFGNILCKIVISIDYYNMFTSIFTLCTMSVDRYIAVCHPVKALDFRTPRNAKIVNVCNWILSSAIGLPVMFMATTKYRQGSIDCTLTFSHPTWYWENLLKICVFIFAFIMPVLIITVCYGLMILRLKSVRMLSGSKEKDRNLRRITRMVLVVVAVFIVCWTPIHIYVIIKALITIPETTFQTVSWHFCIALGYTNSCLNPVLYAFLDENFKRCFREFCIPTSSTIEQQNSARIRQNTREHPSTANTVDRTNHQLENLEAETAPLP

As for `CCN(CC)C(=O)c1ccc(C(=C2CCNCC2)c2c(C)cc(NC(=O)COCC(=O)NCCCCCNC(=O)COCC(=O)N[C@@H]3CC[C@@]4(O)[C@H]5Cc6ccc(O)c7c6[C@@]4(CCN5CC4CC4)[C@H]3O7)cc2C)cc1.Cl`, the pKi in test [1] was 8.6; in test [2] it was over 9. In the test filed under Mus musculus, the Ratio Ki came to 10. Besides, the Ki at Mu-type opioid receptor is under 1 nM; in test [3], 20 nM.
Regarding `CN1CC[C@]23c4c5ccc(O)c4O[C@H]2[C@@H](NC(=O)COCC(=O)NCCCCCNC(=O)COCC(=O)Nc2cccc4c6c([nH]c24)[C@@H]2Oc4c(OCCc7ccccc7)ccc7c4[C@@]24CCN(CC2CC2)[C@H](C7)[C@]4(O)C6)CC[C@@]3(O)[C@H]1C5.Cl`, the pKi stood at 7.34 in test [1] and 8.21 in test [2]. The Ki is 9.77 nM at Mu-type opioid receptor and 204 nM in test [3].
For `CCN(CC)C(=O)c1ccc(C(=C2CCNCC2)c2c(C)cc(NC(=O)COCC(=O)NCCCCCNC(=O)COCC(=O)NC)cc2C)cc1.Cl`, in that order: 5.78, 5.92, 550 nM and 2880 nM.
For `Cl.Oc1ccc2c3c1O[C@H]1c4[nH]c5ccccc5c4C[C@@]4(O)[C@@H](C2)N(CC2CC2)CC[C@]314` [NALTRINDOLE HYDROCHLORIDE], in that order: 8.26, 8.46, 16.6 nM and 2.63 nM.
For `CNC(=O)COCC(=O)NCCCCCNC(=O)COCC(=O)N[C@@H]1CC[C@@]2(O)[C@H]3Cc4ccc(O)c5c4[C@@]2(CCN3CC2CC2)[C@H]1O5`, in that order: 7.79, 8.38, 0.324 nM and 30.9 nM.
In the case of `CNC(=O)COCC(=O)NCCCCCNC(=O)COCC(=O)N[C@H]1CC[C@@]2(O)[C@H]3Cc4ccc(O)c5c4[C@@]2(CCN3C)[C@H]1O5`, at Mu-type opioid receptor, the affinity corresponds to a Ki of 22.4 nM. The molecule further showed a pKi in test [2] of 6.9.
In the case of `Nc1cccc2c3c([nH]c12)[C@@H]1Oc2c(OCCc4ccccc4)ccc4c2[C@@]12CCN(CC1CC1)[C@H](C4)[C@]2(O)C3`, the figures for the pKi in test [1] and in test [2] were 7.46 and 6.94, respectively. Moreover, the Ki is 120 nM at Mu-type opioid receptor and 91.2 nM in test [3].

The values above are taken from ChEMBL document CHEMBL2150958, “Tuned-Affinity Bivalent Ligands for the Characterization of Opioid Receptor Heteromers” (ACS Med Chem Lett, 2012).
